Measurements reported in patent US5962487A, “Antipicornaviral compounds and methods for their use and preparation” (Agouron Pharmaceuticals, Inc., priority 1997, dated 1999).

Experiments:
in vitro = assay type: cell-based; conditions: human, hi-hela cells
Method: (§1) HI-HeLa cells were infected with HRV-14 (unless otherwise noted) at a multiplicity of infection (m.o.i.) of 0.13 (virus particles/cell) or mock-infected with medium only. Infected or mock-infected cells were resuspended at 8×10^5 cells per mL and incubated with appropriate concentrations of compounds of formulas I and II. Two days later, XTT/PMS was added to test plates, and the amount of formazan produced was quantified spectrophotometrically at 450/650 nm. The EC50 was calculated as the concentration of compound that increased the percentage of formazan production in compound-treated, virus-infected cells to 50% of that produced by compound-free mock-infected cells. The 50% cytotoxic dose (CC50) was calculated as the concentration of compound that decreased the percentage of formazan produced in compound-treated, mock-infected cells to 50% of that produced in compound-free, mock-infected cells. The therapeutic index (TI) was calculated by dividing the CC50 by the EC50.
(§2) All strains of human rhinovims (HRV) for use in this assay were purchased from American Type Culture Collection (ATCC), except for HRV serotype-14, which was produced from the infectious cDNA clone, constructed and supplied to us by Dr. Roland Rueckert at the Institute for Molecular Virology, University of Wisconsin, Madison, Wis. HRV stocks were propagated, and antiviral assays were performed in HI-HeLa (ATCC). Cells were grown in Minimal Essential Medium, available from Life Technologies, with 10% fetal bovine serum.

[1] = molecular target: T1, Rhinovirus 3C protease (RVP) serotype 2 (Human rhinovirus 2, UniProt P04936); assay: Inhibition of Rhinovirus Protease, serotype 2 (FRET assay); assay type: biochemical; conditions: enzyme start experiments, read-out: kobs/I
T1 construct: Recombinant Rhinovirus 3C proteases from serotypes 14, 16, 2 or 89 were prepared; made in house
Method: (§3) Stock solutions (50 mM, in DMSO) of various compounds were prepared; dilutions were in the same solvent. Recombinant Rhinovirus 3C proteases from serotypes 14, 16, 2 or 89 were prepared by the following standard chromatographic procedures: (1) ion exchange using Q Sepharose Fast Flow from Pharmacia; (2) affinity chromatography using Affi-Gel Blue from Biorad; and (3) sizing using Sephadex G-100 from Pharmacia. Assays contained 2% DMSO, 50 mM tris pH 7.6, 1 mM EDTA, a compound at the indicated concentrations, approximately 1 μM substrate, and 50-100 nM protease. For Ki determinations, the compound and the enzyme were preincubated for 10 minutes at 30° C. prior to addition of the substrate (substrate start). The kobs/I values were obtained from reactions initiated by addition of enzyme rather than substrate. RVP activity is measured in the fluorescence resonance energy transfer assay. The substrate was (N-terminal) DABCYL-(Gly-Arg-Ala-Val-Phe-Gln-Gly-Pro-Val-Gly)-EDANS. In the uncleaved peptide, the EDANS fluorescence was quenched by the proximal DABCYL moiety. When the peptide was cleaved, the quenching was relieved, and activity was measured as an increase in fluorescence signal.
(§4) In the above table, all data is for RVP serotype-14 unless otherwise noted in parentheses. All strains of human rhinovirus (HRV) were purchased from American Type Culture Collection (ATCC), except for serotype 14, which was produced from the infectious cDNA clone constructed and supplied to us by Dr. Roland Rueckert at the Institute for Molecular Virology, University of Wisconsin, Madison, Wis. The column designated INHIB represents the percent inhibition, with the concentration of the compound in μM indicated in parentheses, unless Ki was assigned as designated by (Ki), at 10 minute preincubation with 50 nM RVP prior to addition of substrate was used. The data in the column designated kobs/I was measured from progress curves in enzyme start experiments.

[2] = molecular target: T2, Rhinovirus 3C protease (RVP) serotype 16 (Human rhinovirus 16, UniProt Q82122); assay: Inhibition of Rhinovirus Protease, serotype 16 (FRET assay); assay type: biochemical; conditions: enzyme start experiments, read-out: kobs/I
T2 construct: Recombinant Rhinovirus 3C proteases from serotypes 14, 16, 2 or 89 were prepared; made in house
Method: as §3, §4

HRV-14 = assay: Antirhinoviral HI-HeLa Cell Culture Assay (cell protection, XTT), HRV-14; assay type: cell-based, human rhinovirus; conditions: for EC50: Rhinovirus B, HRV14, 48 h, HRV serotype-14 infected HI-HeLa cells, XTT, two days; for TI: CC50/EC50, HRV serotype-14, 2880 min
Method: In the Cell Protection Assay, the ability of compounds to protect cells against HRV infection was measured by the XTT dye reduction method. This method is described in O. S. Weislow, R. Kiser, D. L. Fine, J. Bader, R. H. Shoemaker, and M. R. Boyd, J. Natl. Cancer Inst. 1989, 81, 577-586, which document is entirely incorporated herein by reference.
as §1, §2
The compounds were tested against control compounds WIN 51711, WIN 52084, and WIN 54954, all obtained from Sterling-Winthrop Pharmaceuticals, and control compound Pirodavir, obtained from Janssen Pharmaceuticals. Antiviral data obtained for the test compounds are shown in Table 2 where all data are for HRV serotype-14 unless otherwise noted in parentheses.

[3] = molecular target: T3, Rhinovirus 3C protease (RVP) serotype-14 (Human rhinovirus 14, UniProt P03303); assay: Inhibition of Rhinovirus Protease, serotype 14 (FRET assay); assay type: biochemical; conditions: for kinact/KI: read-out: kobs/I; for Ki / inhibition at 10 µM: RVP serotype-14; for Ki: 10 minute preincubation with 50 nM RVP prior to addition of substrate, read-out: INHIB (Ki); for inhibition at 10 µM: 10 μM compound, 10 minute preincubation with 50 nM RVP, read-out: INHIB (percent inhibition)
T3 construct: Recombinant Rhinovirus 3C proteases from serotypes 14, 16, 2 or 89 were prepared; made in house
Method: as §3, §4

T3 sequence (P03303 1538-1719): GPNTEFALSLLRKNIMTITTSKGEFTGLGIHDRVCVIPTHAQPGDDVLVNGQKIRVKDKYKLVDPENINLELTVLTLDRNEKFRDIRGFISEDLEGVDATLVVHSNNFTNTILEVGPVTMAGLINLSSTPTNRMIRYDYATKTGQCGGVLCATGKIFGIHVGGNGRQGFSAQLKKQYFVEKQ
T1 sequence (P04936 1508-1690): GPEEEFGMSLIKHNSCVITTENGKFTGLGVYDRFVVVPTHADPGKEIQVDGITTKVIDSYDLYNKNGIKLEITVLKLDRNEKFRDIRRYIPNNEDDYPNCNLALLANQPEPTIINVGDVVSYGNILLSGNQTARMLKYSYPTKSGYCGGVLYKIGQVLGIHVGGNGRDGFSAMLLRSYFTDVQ
T2 sequence (Q82122 1511-1693): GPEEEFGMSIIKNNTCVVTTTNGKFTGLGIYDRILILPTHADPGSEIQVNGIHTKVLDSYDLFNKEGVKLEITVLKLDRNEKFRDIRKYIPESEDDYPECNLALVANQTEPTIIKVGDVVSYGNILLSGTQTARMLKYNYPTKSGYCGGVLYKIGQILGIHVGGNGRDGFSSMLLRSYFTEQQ

Structure (SMILES)	CC50 at 48 h (in vitro)	kinact/KI [1]	kinact/KI [2]	EC50 (HRV-14)	kinact/KI [3]	TI (HRV-14)	Ki [3]	inhibition at 10 µM [3]
CCOC(=O)/C=C/[C@H](CCC(N)=O)NC(=O)C1CNCCN1C(=O)[C@H](CC(C)C)NC(=O)OCc1ccccc1 (mixture of isomers) [Compound 27, Ethyl-3-(CBZ-L-Leu-DL-Pipz-L-Gln)-E-Propenoate]	> 320 µM	87 M⁻¹ s⁻¹	90 M⁻¹ s⁻¹	> 320 µM	102 M⁻¹ s⁻¹			
CCOC(=O)/C=C/[C@H](CCC(N)=O)NC(=O)[C@H](Cc1ccc(OC)cc1)N(C)C(=O)[C@H](CC(C)C)NC(=O)OCc1ccccc1 [Compound 3, Ethyl-3-[CBZ-L-Leu-L-N-Me-(OMe)-Tyr-L-Gln]-E-Propenoate]	41.7 µM	292 M⁻¹ s⁻¹	929 M⁻¹ s⁻¹	0.18 µM	16600 M⁻¹ s⁻¹	232	12 µM	
CCOC(=O)/C=C/[C@H](CCC(N)=O)NC(=O)[C@H](Cc1ccc(C)cc1)N(C)C(=O)[C@H](CCc1ccccc1)NC(=O)SCc1ccccc1 [Compound 13, Ethyl-3-[Benzylthiocarbonyl-L-hPhe-L-N-Me-(4-Me-Phe)-L-Gln] -E-Propenoate]	17.8 µM	3980 M⁻¹ s⁻¹	11700 M⁻¹ s⁻¹	0.12 µM	356000 M⁻¹ s⁻¹	148		
CCOC(=O)/C(C)=C/[C@H](CCC(N)=O)NC(=O)[C@H](Cc1ccc(C)cc1)N(C)C(=O)[C@H](CCc1ccccc1)NC(=O)SCc1ccccc1 [Compound 14, Ethyl-2-Methyl-3-[Benylthiocarbonyl-L-hPhe-L-N-Me-(4-Me)-Phe-L-Gln]-E-Propenoate]	15.8 µM	800 M⁻¹ s⁻¹	1800 M⁻¹ s⁻¹	0.32 µM	56400 M⁻¹ s⁻¹	49	0.8 µM	
CCOC(=O)/C=C/[C@H](CCC(N)=O)NC(=O)[C@H](Cc1ccccc1)N(C)C(=O)[C@H](CC(C)C)NC(=O)SCc1ccccc1 [Compound 15, Ethyl-3-(Benzylthiocarbonyl-L-Leu-L-N-Me-Phe-L-Gln)-E-Propenoate]	50.1 µM	3500 M⁻¹ s⁻¹	5600 M⁻¹ s⁻¹	0.26 µM	36400 M⁻¹ s⁻¹	192	2.5 µM	
CCOC(=O)/C(C)=C/[C@H](CCC(N)=O)NC(=O)[C@H](Cc1ccccc1)N(C)C(=O)[C@H](CC(C)C)NC(=O)SCc1ccccc1 [Compound 16, Ethyl-2-Methyl-3-(Benzylthiocarbonyl-L-Leu-L-N-Me-Phe-L-Gln)-E-Propenoate]	32 µM	600 M⁻¹ s⁻¹	1000 M⁻¹ s⁻¹	1.7 µM	8300 M⁻¹ s⁻¹	19	12 µM	
CCOC(=O)/C=C/[C@H](CCC(N)=O)NC(=O)[C@@H]1CCCN1C(=O)[C@H](CC(C)C)NC(=O)SCC [Compound 24, Ethyl-3-(Ethythiocarbonyl-L-Leu-L-Pro-L-Gln)-E-Propenoate]	> 100 µM	7100 M⁻¹ s⁻¹	9300 M⁻¹ s⁻¹	10 µM	22000 M⁻¹ s⁻¹	> 10	8 µM	
CCOC(=O)/C=C/[C@H](CCC(N)=O)NC(=O)[C@@H]1CCCCN1C(=O)[C@H](CC(C)C)NC(=O)OCc1ccccc1 [Compound 25, Ethyl-3-[CBZ-L-Leu-L-Pip-L-Gln]-E-Propenoate]	> 320 µM	1280 M⁻¹ s⁻¹	770 M⁻¹ s⁻¹	14 µM	1470 M⁻¹ s⁻¹	> 23		
CCOC(=O)/C=C/C(CCC(N)=O)NC(=O)[C@@H]1CCc2ncc(N(C(=O)SC3CCCC3)C(=O)SC3CCCC3)c(=O)n21 (stereo partly shown) [Compound 50]	> 100 µM			3.2 µM	14000 M⁻¹ s⁻¹	> 31		
CCOC(=O)/C=C/C(CCC(N)=O)NC(=O)[C@@H]1CCc2ncc(NC(=O)SC3CCCC3)c(=O)n21 (stereo partly shown) [Compound 51]	> 100 µM			12.6 µM	43900 M⁻¹ s⁻¹	> 8		
CCOC(=O)/C=C/C(CCC(N)=O)NC(=O)[C@@H]1CCc2ncc(NC(=O)SCC)c(=O)n21 (stereo partly shown) [Compound 52]	> 100 µM			32 µM	31100 M⁻¹ s⁻¹	> 3		
CCOC(=O)/C=C/C(CCC(N)=O)NC(=O)[C@H](Cc1ccccc1)N1CC[C@H](NC(=O)OCc2ccccc2)C1=O (stereo partly shown) [Compound 53]	> 100 µM			4.5 µM	242 M⁻¹ s⁻¹	> 22		
CCOC(=O)/C=C/C(CCC(N)=O)NC(=O)[C@H](Cc1ccccc1)N1CC[C@@H](NC(=O)SC2CCCCC2)C1=O (stereo partly shown) [Compound 54]	> 100 µM			17.8 µM		> 6		55%
CCOC(=O)/C=C/C(CCC(N)=O)NC(=O)[C@H](Cc1ccccc1)N1CC[C@@H](NC(=O)OCc2ccccc2)C1=O (stereo partly shown) [Compound 55]	> 100 µM			50 µM		> 2		20%
CC(C)C[C@H](NC(=O)SC1CCCC1)C(=O)N(C)[C@@H](Cc1ccccc1)C(=O)N[C@H](/C=C/C(=O)OCc1ccccc1)CCC(N)=O [Compound 56]	20 µM			1.6 µM	15400 M⁻¹ s⁻¹	13		
CCCOC(=O)/C=C/[C@H](CCC(N)=O)NC(=O)[C@H](Cc1ccccc1)N(C)C(=O)[C@H](CC(C)C)NC(=O)SC1CCCC1 [Compound 57]	50 µM			0.56 µM	13500 M⁻¹ s⁻¹	89		
COCCOC(=O)/C=C/[C@H](CCC(N)=O)NC(=O)[C@H](Cc1ccccc1)N(C)C(=O)[C@H](CC(C)C)NC(=O)SC1CCCC1 [Compound 58]	63 µM			0.56 µM	24300 M⁻¹ s⁻¹	113		
